Measured values published in patent US20250019385A1, “SPIROCYCLIC ANNULATED 2-AMINO-3-CYANO THIOPHENES AND DERIVATIVES FOR THE TREATMENT OF CANCER” (Boehringer Ingelheim International GmbH, priority 2023, published 2025).
Converted amounts (≈) assume the structure as drawn. Read-outs that look alike come from different tables or passages of the source.

Columns and labels:
[1] = Metabolic (microsomal) stability assay, human liver microsomes (HLM); format: in vitro ADME; details: 1 μM test compound, predicted clearance as percent of liver blood flow
Protocol: The metabolic degradation of the test compound is assayed at 37° C. with pooled liver microsomes (mouse (MLM), rat (RLM) or human (HLM)). The final incubation volume of 48 μL per time point contains TRIS buffer (pH 7.5; 0.1 M), magnesium chloride (6.5 mM), microsomal protein (0.5 mg/mL for mouse/rat, 1 mg/mL for human specimens) and the test compound at a final concentration of 1 μM. Following a short preincubation period at 37° C., the reactions are initiated by addition of 12 μL beta-nicotinamide adenine dinucleotide phosphate, reduced form (NADPH, 10 mM) and terminated by transferring an aliquot into solvent after different time points (0, 5, 15, 30, 60 min). Additionally, the NADPH-independent degradation is monitored in incubations without NADPH, terminated at the last time point by addition of acetonitrile. The quenched incubations are pelleted by centrifugation (4,000 rpm, 15 min). An aliquot of the supernatant is assayed by LC-MS/MS to quantify the concentration of parent compound in the individual samples.
In vitro intrinsic clearance (CLint,in vitro) is calculated from the time course of the disappearance of the test drug during the microsomal incubation. Each plot is fitted to the first-order elimination rate constant as C(t)=C0*exp(−ke*t), where C(t) and C0 are the concentration of unchanged test drug at incubation time t and that at preincubation and ke is the disappearance rate constant of the unchanged drug. Subsequently, CLint, in vitro (μL min^−1·amount protein) values are converted to predicted CLint,in vivo (mL min^−1·kg^−1) from incubation parameters according to the equation CLint, in vivo=CLint, in vitro×(incubation volume (mL)/amount protein (mg))×(amount protein (mg)/g liver tissue)×(liver weight/body wt.).
For better across species comparison the predicted clearance is expressed as percent of the liver blood flow [% QH] (mL min^−1·kg^−1) in the individual species. In general, high stability (corresponding to low % QH) of the compounds across species is desired.

Ba/F3 cells KRAS G12D = experiment: Ba/F3 proliferation assay (KRAS G12D); format: cell-based; details: AlamarBlue viability
Protocol: Ba/F3 cells are ordered from DSMZ (ACC300, Lot17) and grown in RPMI-1640 (ATCC 30-2001)+10% FCS+10 ng/mL IL-3 at 37° C. in 5% […] atmosphere. Plasmids containing KRASG12 mutants (i.e. […], G12C, G12V) are obtained from GeneScript. To generate KRASG12-dependent Ba/F3 models, Ba/F3 cells are transduced with retroviruses containing vectors that harbor KRASG12 isoforms. Platinum-E cells (Cell Biolabs) are used for retrovirus packaging. Retrovirus is added to Ba/F3 cells. To ensure infection, 4 μg/mL polybrene is added and cells are spinfected. Infection efficiency is confirmed by measuring GFP-positive cells using a cell analyzer. Cells with an infection efficiency of 10% to 20% are further cultivated and puromycin selection with 1 μg/mL is initiated. As a control, parental Ba/F3 cells are used to show selection status. Selection is considered successful when parental Ba/F3 cells cultures died. To evaluate the transforming potential of KRASG12 mutations, the growth medium is no longer supplemented with IL-3. Ba/F3 cells harboring the empty vector are used as a control. Approximately ten days before conducting the experiments, puromycin is left out.
For proliferation assays, Ba/F3 cells are seeded into 384-well plates at 1.5×1 (M cells/60 μL in growth media (RPMI-1640+10% FCS). Compounds (10 mM stock in DMSO) are added at logarithmic dose series using the ECHO acoustic liquid handler system (Beckman Coulter), normalizing for added DMSO and including DMSO controls. All compound treatments are performed in technical duplicates. For the TO time point measurement, untreated cells are analyzed at the time of compound addition. Treated cells are incubated for 72 h at 37° C. with 5% CO2 and cell viability is measured in the PerkinElmer Envision Multimode Reader using AlamarBlue™ (ThermoFisher) viability stain. Viability (stated as percent of control) is defined as relative fluorescence units RFU of each well divided by the RFU of cells in DMSO controls. IC50 values are determined from viability measurements by non-linear regression using a four-parameter model.

[2] = Solubility measurement (DMSO solution precipitation method); format: physicochemical; details: for solubility at 24 h: aqueous buffer, kinetic from dmso stock
Protocol: A 10 mM DMSO stock solution of a test compound is used to determine its aq. solubility. The DMSO solution is diluted with an aq. medium (McIlvaine buffer with pH=4.5 or 6.8) to a final concentration of 250 μM. After 24 h of shaking at ambient temperature a potentially formed precipitate is removed by filtration. The concentration of the test compound in the filtrate is determined by LC-UV methods by calibrating the signal to the signal of a reference solution with complete dissolution of the test compound in acetonitrile/water (1:1) with known concentration.

SK-CO-1 cells = experiment: SK-CO-1 CTG proliferation assay (120 h) (CRC, G12V); format: cell-based
Protocol: SK—CO-1 cells (ATCC HTB-39) are dispensed into black 384-well plates, flat and clear bottom (Greiner, PNr. 781091) at a density of 500 cells per well in 60 μl EMEM (Sigma M5650)+10% FCS (fetal calf serum, HyClone, SH30084.03). Cells are incubated overnight at 37° C. in a humidified tissue culture incubator at 5% CO2. Compounds (10 mM stock in DMSO) are added at logarithmic dose series using the ECHO acoustic liquid handler system (Beckman Coulter), normalizing for added DMSO and including DMSO controls. All compound treatments are performed in technical duplicates. For the TO time point measurement, untreated cells are analyzed at the time of compound addition. Plates are incubated for 120 h, and cell viability is measured using CellTiter-Glo luminescent cell viability reagent (Promega product code G7570). Viability (stated as percent of control) is defined as relative luminescence units RLU of each well divided by the RLU of cells in DMSO controls. IC50 values are determined from viability measurements by non-linear regression using a four-parameter model.
IC50 values of representative compounds according to the invention measured with these assays in the indicated cell lines are presented in Table 46.

[3] = McIlvaine buffer pH 4.5, 24 h, read-out: solubility pH 4.5
[4] = McIlvaine buffer pH 6.8, 24 h, read-out: solubility pH 6.8

Structure (SMILES)	HLM QH [1]	IC50 (Ba/F3 cells KRAS G12D; Mus musculus, BaF3, 72 h)	solubility at 24 h [2, 3]	solubility at 24 h [2, 4]	IC50 (SK-CO-1 cells; Homo sapiens)	IC50 (Ba/F3 cells KRAS G12D; 72 h)	solubility pH 4.5 ([2]; McIlvaine buffer pH 4.5, 24 h, from DMSO stock)	solubility pH 6.8 ([2]; McIlvaine buffer pH 6.8, 24 h, from DMSO stock)	IC50 (SK-CO-1 cells)
C[C@H](Oc1nc(-c2onc3c2CCC[C@@]32CCCc3sc(N)c(C#N)c32)nc2c1n(C)c(=O)n2[C@H]1CC2CCC1O2)[C@@H]1CCCN1C (some centres unmarked) [I-17]	<24%	47 nM	> 155 µg/mL	> 148 µg/mL	83 nM	–	–	–	–
CO[C@H]1C[C@@H](n2c(=O)n(C)c3c(O[C@@H](C)[C@@H]4CCCN4C)nc(-c4onc5c4CCC[C@@]54CCCc5sc(N)c(C#N)c54)nc32)C1 [I-31]	<24%	37 nM	> 158 µg/mL	> 148 µg/mL	94 nM	–	–	–	–
CO[C@@H]1C[C@@H]([C@H](C)Oc2nc(-c3onc4c3CCC[C@@]43CCCc4sc(N)c(C#N)c43)nc3c2n(C)c(=O)n3[C@@H]2CCCOC2)N(C)C1 [I-14]	27%	10 nM	> 163 µg/mL	< 1 µg/mL	7 nM	–	–	–	–
C[C@H](Oc1nc(-c2noc3c2CCC[C@@]32CCCc3sc(N)c(C#N)c32)nc2c1CC[C@]21CNCCO1)[C@@H]1C[C@@H](F)CN1C [II-20]	36%	–	–	–	–	45 nM	>156 μg/ml	>156 μg/mL	148 nM
CO[C@@H]1C[C@@H]([C@H](C)Oc2nc(-c3noc4c3CCC[C@@]43CCCc4sc(N)c(C#N)c43)nc3c2n(C)c(=O)n3[C@@]23COC[C@@H]2C3)N(C)C1 [II-6]	52%	11 nM	> 144 µg/mL	62 µg/mL (≈ 92.2 µM)	2 nM	–	–	–	–
C[C@H](Oc1nc(-c2noc3c2CCC[C@@]32CCCc3sc(N)c(C#N)c32)nc2c1CN(c1ncccn1)[C@]21CCOC1)[C@@H]1CCCN1C [II-7a]	<24%	28 nM	65 µg/mL (≈ 97.6 µM)	24 µg/mL (≈ 36 µM)	32 nM	–	–	–	–
C[C@H](Oc1nc(-c2onc3c2CCC[C@@]32CCCc3sc(N)c(C#N)c32)nc2c1N(C)C(=O)CN2[C@@H]1CCOC1)[C@@H]1CCCN1C [I-37]	<24%	305 nM	> 151 µg/mL	113 µg/mL (≈ 175 µM)	323 nM	–	–	–	–
C[C@H](Oc1nc(-c2onc3c2CCC[C@@]32CCCc3sc(N)c(C#N)c32)nc2c1n(C)c(=O)n2[C@@H]1CCOC1)[C@@H]1C[C@@H]2C[C@@H]2N1C [I-28]	52%	53 nM	> 166 µg/mL	16 µg/mL (≈ 24.9 µM)	67 nM	–	–	–	–
CO[C@H]1C[C@@H]([C@H](C)Oc2nc(-c3onc4c3CCC[C@@]43CCCc4sc(N)c(C#N)c43)nc3c2n(C)c(=O)n3[C@@H]2CCOC2)N(C)C1 [I-2]	73%	90 nM	> 159 µg/mL	115 µg/mL (≈ 174 µM)	43 nM	–	–	–	–
Cc1cc2c(O[C@@H](C)[C@@H]3CCCN3C)nc(-c3onc4c3CCC[C@@]43CCCc4sc(N)c(C#N)c43)nc2n1[C@@H]1CCOC1 [I-40]	37%	28 nM	> 124 µg/mL	44 µg/mL (≈ 71.7 µM)	39 nM	–	–	–	–
C[C@H](Oc1nc(-c2onc3c2CCC[C@@]32CCCc3sc(N)c(C#N)c32)nc2c1n(C)c(=O)n2[C@H]1CCC[C@@H]1O)[C@@H]1CCCN1C [I-19]	<24%	470 nM	> 152 µg/mL	> 146 µg/mL	190 nM	–	–	–	–
C[C@H](Oc1nc(-c2onc3c2CCC[C@@]32CCCc3sc(N)c(C#N)c32)nc2c1n(C)c(=O)n2[C@@H]1CCOC1)[C@@H]1C[C@@H](F)CN1C [I-22]	56%	22 nM	> 154 µg/mL	12 µg/mL (≈ 18.5 µM)	9 nM	–	–	–	–
C[C@H](Oc1nc(-c2noc3c2CCC[C@@]32CCCc3sc(N)c(C#N)c32)nc2c1CCC21CCOC1)[C@@H]1CCCN1C (some centres unmarked) [II-18]	36%	20 nM	89 µg/mL (≈ 152 µM)	37 µg/mL (≈ 63.1 µM)	79 nM	–	–	–	–
C[C@H](Oc1nc(-c2onc3c2CCC[C@@]32CCCc3sc(N)c(C#N)c32)nc2c1CN(C1COC1)C[C@]21CCOC1)[C@@H]1CC[C@H](C)N1C [I-55]	52%	10 nM	> 159 µg/mL	> 137 µg/mL	6 nM	–	–	–	–
CC(C)n1c(=O)n([C@@H]2CCOC2)c2nc(-c3onc4c3CCC[C@@]43CCCc4sc(N)c(C#N)c43)nc(O[C@@H](C)[C@@H]3CCCN3C)c21 [I-32]	88%	58 nM	> 155 µg/mL	63 µg/mL (≈ 95.6 µM)	43 nM	–	–	–	–
C[C@H](Oc1nc(-c2noc3c2CCC[C@@]32CCCc3sc(N)c(C#N)c32)nc2c1CN(c1ncccn1)[C@@]21CCOC1)[C@@H]1CCCN1C [II-7b]	<24%	127 nM	62 µg/mL (≈ 93.1 µM)	23 µg/mL (≈ 34.5 µM)	154 nM	–	–	–	–
C[C@H](Oc1nc(-c2noc3c2CCC[C@@]32CCCc3sc(N)c(C#N)c32)nc2c1CN(C1COC1)C[C@]21CCOC1)[C@@H]1CCCN1C [II-12]	26%	8 nM	> 152 µg/mL	> 140 µg/mL	5 nM	–	–	–	–
C[C@H](Oc1nc(-c2onc3c2CCC[C@@]32CCCc3sc(N)c(C#N)c32)nc2c1n(C)c(=O)n2[C@@H]1CC2CCC1O2)[C@@H]1CCCN1C (some centres unmarked) [I-18]	31%	182 nM	> 151 µg/mL	97 µg/mL (≈ 148 µM)	362 nM	–	–	–	–
CO[C@H]1CCN(C)[C@@H]1[C@H](C)Oc1nc(-c2noc3c2CCC[C@@]32CCCc3sc(N)c(C#N)c32)nc2c1n(C)c(=O)n2[C@@H]1CCOC1 [II-1]	80%	9 nM	> 161 µg/mL	37 µg/mL (≈ 56 µM)	4 nM	–	–	–	–
